The IC50 is the midpoint of a concentration-inhibition curve.

Each structure is given as a SMILES string.

In the experiment the target is TBK1 (Homo sapiens (Human), UniProt Q9UHD2). Description: TBK1 low ATP kinase assay (in vitro assay 1). In kind it is biochemical. The following applies: in vitro assay 1, read-out: TBK1 low ATP kinase assay IC50.
Chain of TBK1 (Q9UHD2 whole entry): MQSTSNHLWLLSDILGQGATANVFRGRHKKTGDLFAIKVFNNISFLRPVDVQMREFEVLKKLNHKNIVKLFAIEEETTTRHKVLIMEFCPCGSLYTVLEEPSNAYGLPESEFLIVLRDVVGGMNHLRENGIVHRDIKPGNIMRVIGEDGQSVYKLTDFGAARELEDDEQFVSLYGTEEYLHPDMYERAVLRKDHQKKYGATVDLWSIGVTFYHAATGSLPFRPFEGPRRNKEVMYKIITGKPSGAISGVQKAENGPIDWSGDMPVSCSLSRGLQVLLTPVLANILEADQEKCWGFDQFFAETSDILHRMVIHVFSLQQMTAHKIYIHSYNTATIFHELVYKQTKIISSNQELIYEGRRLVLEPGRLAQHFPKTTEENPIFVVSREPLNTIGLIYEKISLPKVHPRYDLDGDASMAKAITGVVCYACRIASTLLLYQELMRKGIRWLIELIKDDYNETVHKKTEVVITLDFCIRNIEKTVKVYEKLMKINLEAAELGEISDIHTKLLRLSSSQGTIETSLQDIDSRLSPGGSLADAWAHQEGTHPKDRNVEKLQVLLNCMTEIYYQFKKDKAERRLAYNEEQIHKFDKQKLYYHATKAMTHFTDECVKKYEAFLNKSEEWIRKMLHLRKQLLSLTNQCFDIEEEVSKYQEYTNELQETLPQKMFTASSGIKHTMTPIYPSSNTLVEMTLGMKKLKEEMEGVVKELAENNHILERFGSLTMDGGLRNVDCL
Take `O=C(C1CC1)N1CCN(Cc2ccnc(Nc3nc4ccc(-c5nc(C6CC6)c[nH]5)cc4[nH]3)c2)CC1` [Example 43.03, cyclopropyl{4-[(2-{[6-(4-cyclopropyl-1H-imidazol-2-yl)-1H-benzimidazol-2-yl]amino}pyridin-4-yl)methyl]piperazin-1-yl}methanone]: the IC50 was found to be 696 nM.

On to `CC(C)N(C)c1cc(-c2ccc3nc(Nc4cc(CN5CCN(C(=O)CC(F)(F)F)CC5)ccn4)[nH]c3c2)ncn1` [Example 153.02, 3,3,3-trifluoro-1-[4-({2-[(6-{6-[methyl(propan-2-yl)amino]pyrimidin-4-yl}-1H-benzimidazol-2-yl)amino]pyridin-4-yl}methyl)piperazin-1-yl]propan-1-one], for which the IC50 stood at 5.9 nM.

As to `O=C(CC1CC1)N1CCN(Cc2ccnc(Nc3nc4ccc(-c5nc(C6CC6)no5)cc4[nH]3)c2)CC1` [Example 17.03, 2-cyclopropyl-1-{4-[(2-{[6-(3-cyclopropyl-1,2,4-oxadiazol-5-yl)-1H-benzimidazol-2-yl]amino}pyridin-4-yl)methyl]piperazin-1-yl}ethanone], the IC50 was found to be 56.5 nM.

Consider `Cc1nccc(-c2ccc3nc(Nc4cc(CN5CCN(C(=O)CC6CC6)CC5)ccn4)[nH]c3c2)n1` [Example 24.01.04, 2-cyclopropyl-1-{4-[(2-{[6-(2-methylpyrimidin-4-yl)-1H-benzimidazol-2-yl]amino}pyridin-4-yl)methyl]piperazin-1-yl}ethanone], for which the IC50 stood at 44.4 nM.

As for `Cc1noc(-c2ccc3nc(Nc4cc(C(C)N5CCN(C(=O)C(C)(C)O)CC5)ccn4)[nH]c3c2)n1` (single isomer, unassigned) [Example 16.06.06, 2-hydroxy-2-methyl-1-{4-[(1R or 1S)-1-(2-{[6-(3-methyl-1,2,4-oxadiazol-5-yl)-1H-benzimidazol-2-yl]amino}pyridin-4-yl)ethyl]piperazin-1-yl}propan-1-one], the IC50 was 73 nM.

Regarding `CC(C)Nc1cc(-c2ccc3nc(Nc4cc(CN5CCN(C(=O)C6CC6)CC5)ccn4)[nH]c3c2)ncn1` [Example 154.03, cyclopropyl(4-{[2-({6-[6-(propan-2-ylamino)pyrimidin-4-yl]-1H-benzimidazol-2-yl}amino)pyridin-4-yl]methyl}piperazin-1-yl)methanone], the IC50 amounted to 1.4 nM.

Take `Cc1cc(-c2ccc3nc(Nc4cc(CN5CCN(C(=O)C6CCC6)CC5)ccn4)[nH]c3c2)ncn1` [Example 30.01.02, cyclobutyl{4-[(2-{[6-(6-methylpyrimidin-4-yl)-1H-benzimidazol-2-yl]amino}pyridin-4-yl)methyl]piperazin-1-yl}methanone]: the IC50 was 18.5 nM.

For `CCc1cc(-c2ccc3nc(Nc4cc(CN5CCN(C(=O)C6CC6)CC5)ccn4)[nH]c3c2)ncn1` [Example 91.03, cyclopropyl{4-[(2-{[6-(6-ethylpyrimidin-4-yl)-1H-benzimidazol-2-yl]amino}pyridin-4-yl)methyl]piperazin-1-yl}methanone], the IC50 was found to be 13 nM.

`Cc1ncc(C)c(-c2ccc3nc(Nc4cc(CN5CCN(C(=O)C6CC6)CC5)ccn4)[nH]c3c2)n1` [Example 33.03, cyclopropyl{4-[(2-{[6-(2,5-dimethylpyrimidin-4-yl)-1H-benzimidazol-2-yl]amino}pyridin-4-yl)methyl]piperazin-1-yl}methanone]: the IC50 was determined as 1500 nM.

Turning to `COc1cc(-c2ccc3nc(Nc4cc(CN5CCN(C(=O)C6CC6)CC5)ccn4)[nH]c3c2OCC(C)C)ccn1` [Example 49.01, cyclopropyl{4-[(2-{[6-(2-methoxypyridin-4-yl)-7-(2-methylpropoxy)-1H-benzimidazol-2-yl]amino}pyridin-4-yl)methyl]piperazin-1-yl}methanone], the IC50 worked out at 217 nM.

With `Cc1cc(-c2ccc3nc(Nc4cc(C(C)N5CCN(C(=O)C6CC6)CC5)ccn4)[nH]c3c2F)ncn1` (single isomer, unassigned) [Example 172.03, cyclopropyl{4-[(1R or 1S)-1-(2-{[7-fluoro-6-(6-methylpyrimidin-4-yl)-1H-benzimidazol-2-yl]amino}pyridin-4-yl)ethyl]piperazin-1-yl}methanone], the IC50 was found to be 15 nM.

Turning to `COc1cc(-c2ccc3nc(Nc4cc(CN5CCN(C(=O)C6CC6)CC5)ccn4)[nH]c3c2)ccn1` [Example 02.02, cyclopropyl{4-[(2-{[6-(2-methoxypyridin-4-yl)-1H-benzimidazol-2-yl]amino}pyridin-4-yl)methyl]piperazin-1-yl}methanone], the IC50 came out at 30.7 nM.

With `O=C(C1CC1)N1CCN(Cc2ccnc(Nc3nc4ccc(-c5ncc[nH]5)cc4[nH]3)c2)CC1` [Example 43.01, cyclopropyl{4-[(2-{[6-(1H-imidazol-2-yl)-1H-benzimidazol-2-yl]amino}pyridin-4-yl)methyl]piperazin-1-yl}methanone], the IC50 is 262 nM.

As to `Cc1noc(-c2ccc3nc(Nc4cc(CN5CCN(c6ccncc6)CC5)ccn4)[nH]c3c2)n1` [Example 101.12, 6-(3-methyl-1,2,4-oxadiazol-5-yl)-N-(4-{[4-(pyridin-4-yl)piperazin-1-yl]methyl}pyridin-2-yl)-1H-benzimidazol-2-amine], the IC50 was 450 nM.

For `CC(c1ccnc(Nc2nc3ccc(-c4cc(N(C)CC5CC5)ncn4)cc3[nH]2)c1)N1CCN(C(=O)C2(C(F)(F)F)CC2)CC1` (single isomer, unassigned) [Example 197.04, {4-[(1R or 1S)-1-{2-[(6-{6-[(cyclopropylmethyl)(methyl)amino]pyrimidin-4-yl}-1H-benzimidazol-2-yl)amino]pyridin-4-yl}ethyl]piperazin-1-yl}[1-(trifluoromethyl)cyclopropyl]methanone], the IC50 worked out at 6.46 nM.

Turning to `CC(c1ccnc(Nc2nc3ccc(-c4cc(N5CCCC5)ncn4)cc3[nH]2)c1)N1CCN(C(=O)C2CC2)CC1` (single isomer, unassigned) [Example 117.02, cyclopropyl(4-{(1R or 1S)-1-[2-({6-[6-(pyrrolidin-1-yl)pyrimidin-4-yl]-1H-benzimidazol-2-yl}amino)pyridin-4-yl]ethyl}piperazin-1-yl)methanone], the IC50 is 0.33 nM.

As to `COc1cncnc1-c1ccc2nc(Nc3cc(CN4CCN(C(=O)CC(F)(F)F)CC4)ccn3)[nH]c2c1` [Example 35.01.01, 3,3,3-trifluoro-1-{4-[(2-{[6-(5-methoxypyrimidin-4-yl)-1H-benzimidazol-2-yl]amino}pyridin-4-yl)methyl]piperazin-1-yl}propan-1-one], the IC50 was 18.9 nM.

In the case of `COc1c(-c2ccc3nc(Nc4cc(C(C)N5CCN(C(=O)C6CC6)CC5)ccn4)[nH]c3c2)ncnc1N1CCCC1` (single isomer, unassigned) [Example 112.02, cyclopropyl(4-{(1R or 1S)-1-[2-({6-[5-methoxy-6-(pyrrolidin-1-yl)pyrimidin-4-yl]-1H-benzimidazol-2-yl}amino)pyridin-4-yl]ethyl}piperazin-1-yl)methanone], the IC50 turned out to be 1.3 nM.

With `CNc1cc(-c2ccc3nc(Nc4cc(CN5CCN(C(=O)C6CC6)CC5)ccn4)[nH]c3c2)ncn1` [Example 150.03, cyclopropyl(4-{[2-({6-[6-(methylamino)pyrimidin-4-yl]-1H-benzimidazol-2-yl}amino)pyridin-4-yl]methyl}piperazin-1-yl)methanone], the IC50 came to 5.4 nM.
